Measured values published in patent publication US20100249071A1, “Modulators of S1P and Methods of Making And Using” (Exelixis, Inc., priority 2009, published 2010).
Like-named read-outs stand apart in the source and are kept apart here.

Legend:
[1] = target: T1, hS1P1R (hEdg1) membrane protein (Homo sapiens, UniProt P21453); assay: hS1P1R GTPγS binding assay (Assay 3a); assay type: biochemical
T1 construct: purchased Lonza
Outline: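 Membranes (4 μg) expressing hS1P1R incubated 1 h at room temperature with 30 μM GDP, 0.1 nM [^35S]GTPγS, 0.25% fatty acid free BSA and serially diluted agonist in Tris-HCl pH 7.9/NaCl/MgCl2/EGTA buffer. Bound [^35S]GTPγS captured on WGA SPA beads (further 1 h) and counted.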

S1P1 = target: T2, S1P1 (Homo sapiens, UniProt P21453); assay: Tango β-arrestin recruitment assay in U2OS cells (Assay 2b); assay type: cell-based
T2 construct: host or cells: U2OS
Outline: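 In this agonist-mode Tango assay, U2OS cells carrying S1P1 and the reporter were serum-starved 48 h, then exposed overnight at 37 °C to compound (10 points, 3-fold, top 1 μM, 1% DMSO). β-Lactamase F460/F530 ratio was normalized to 1 μM S1P, and EC50 was fitted.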

[2] = target: T3, hS1PR5 (hEdg8) membrane protein (Homo sapiens, UniProt Q9H228); assay: hS1P5R GTPγS binding assay (Assay 4); assay type: biochemical
T3 construct: expressed in transfected cells; host or cells: CHO
Outline: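 Membranes (5 μg) from CHO cells expressing hS1PR5, incubated 1 h at room temperature with 30 μM GDP, 0.1 nM [35S]GTPγS, 0.25% fatty acid free BSA and serially diluted compound in pH 7.9 Tris buffer with MgCl2. WGA SPA beads added for another 1 h, then bound [35S]GTPγS counted by scintillation.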

S1P3 = target: T4, S1P3 (Homo sapiens, UniProt Q99500); assay: S1P3 Tango β-arrestin recruitment assay in HEK293 cells (Assay 5); assay type: cell-based
T4 construct: host or cells: HEK293 (transient transfection)
Outline: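 HEK293 cells transiently expressing S1P3 fused via TEV-cleavable linker to tTA, with β-arrestin2–TEV, treated 16-18 h at 37 °C with compounds (top 10 μM, 10-point 3-fold, 1% DMSO). Luciferase reporter luminescence normalised to DMSO background and 5 μM S1P control as percent activity; EC50 from concentration-response curves.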

[3] = * = rEC50 measured rather than EC50, read-out: Assay 5 rEC50 (relative EC50, cells marked *)
[4] = * = rEC50 measured rather than EC50, read-out: Assay 2b rEC50 (relative EC50, cells marked *)

T4 sequence (P32121 whole entry): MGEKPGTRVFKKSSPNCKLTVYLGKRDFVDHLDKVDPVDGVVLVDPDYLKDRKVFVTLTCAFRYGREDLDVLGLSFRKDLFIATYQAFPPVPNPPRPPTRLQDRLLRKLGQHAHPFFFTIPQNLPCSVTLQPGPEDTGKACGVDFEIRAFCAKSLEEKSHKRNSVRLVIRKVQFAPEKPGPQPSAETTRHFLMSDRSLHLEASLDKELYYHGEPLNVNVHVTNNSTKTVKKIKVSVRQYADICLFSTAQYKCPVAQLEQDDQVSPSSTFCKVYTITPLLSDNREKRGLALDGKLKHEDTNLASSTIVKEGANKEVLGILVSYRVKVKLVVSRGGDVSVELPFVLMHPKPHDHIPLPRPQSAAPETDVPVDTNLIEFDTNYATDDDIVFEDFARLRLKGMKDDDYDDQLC
T4 sequence (Q99500 whole entry): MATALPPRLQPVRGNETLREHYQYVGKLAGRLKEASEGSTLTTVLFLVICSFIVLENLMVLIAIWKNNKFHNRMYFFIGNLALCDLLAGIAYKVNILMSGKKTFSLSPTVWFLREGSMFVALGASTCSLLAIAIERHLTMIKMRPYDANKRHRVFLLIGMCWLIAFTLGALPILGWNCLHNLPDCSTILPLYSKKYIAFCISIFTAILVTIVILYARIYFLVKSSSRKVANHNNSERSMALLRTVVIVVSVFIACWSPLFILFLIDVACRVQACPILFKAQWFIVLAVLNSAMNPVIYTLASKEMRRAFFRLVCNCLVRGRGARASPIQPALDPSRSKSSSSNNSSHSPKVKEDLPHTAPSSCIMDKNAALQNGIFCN
T2 sequence (P32121 whole entry): as the sequence (P32121 whole entry) above
T2 sequence (P21453 whole entry): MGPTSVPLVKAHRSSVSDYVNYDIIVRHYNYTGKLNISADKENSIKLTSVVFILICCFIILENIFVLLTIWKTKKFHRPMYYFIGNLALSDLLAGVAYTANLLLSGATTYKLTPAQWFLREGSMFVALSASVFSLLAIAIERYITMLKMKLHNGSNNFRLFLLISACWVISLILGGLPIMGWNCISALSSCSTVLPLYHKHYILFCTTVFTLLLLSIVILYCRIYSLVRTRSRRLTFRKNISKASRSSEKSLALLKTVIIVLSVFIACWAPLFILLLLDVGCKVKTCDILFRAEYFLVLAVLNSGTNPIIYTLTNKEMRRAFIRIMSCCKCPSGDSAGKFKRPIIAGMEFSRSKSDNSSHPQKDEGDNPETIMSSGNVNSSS
T3 sequence (Q9H228 whole entry): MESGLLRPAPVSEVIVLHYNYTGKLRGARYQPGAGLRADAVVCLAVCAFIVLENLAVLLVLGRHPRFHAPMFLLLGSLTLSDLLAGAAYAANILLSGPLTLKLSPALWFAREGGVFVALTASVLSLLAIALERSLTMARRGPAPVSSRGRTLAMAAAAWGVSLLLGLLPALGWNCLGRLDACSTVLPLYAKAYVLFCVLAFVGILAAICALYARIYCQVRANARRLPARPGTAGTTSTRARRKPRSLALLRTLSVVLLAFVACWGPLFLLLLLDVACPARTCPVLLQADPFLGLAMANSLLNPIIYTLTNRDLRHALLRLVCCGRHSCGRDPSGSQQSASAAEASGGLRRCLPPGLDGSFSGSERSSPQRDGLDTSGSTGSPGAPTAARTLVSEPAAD
T1 sequence (P21453 whole entry): as the sequence (P21453 whole entry) above

Row | Structure (SMILES) | EC50 [1] [nM] | EC50 (S1P1; read-out: Assay 2b EC50) [nM] | EC50 [2] [nM] | EC50 (S1P3; read-out: Assay 5 EC50) [µM] | EC50 (S1P3; [3]) [µM] | EC50 (S1P1; [4]) [nM]
1 | CC(C)Oc1ccc(-c2nnc(-c3cc(F)c(OC[C@@H](N)[C@@H](C)OP(=O)(O)O)cc3Cl)s2)cc1Cl [Entry 70, (1R,2R)-2-amino-3-{[5-chloro-4-(5-{3-chloro-4-[(1-methylethyl)oxy]phenyl}-1,3,4-thiadiazol-2-yl)-2-fluorophenyl]oxy}-1-methylpropyl dihydrogen phosphate] | ≤ 10 | ≤ 10 | ≤ 10 | ≤ 0.25 |  | 
2 | CC(C)Nc1ccc(-c2nnc(-c3cc(F)c(OC[C@H](N)CO)cc3Cl)s2)cn1 [Entry 75, (2R)-2-amino-3-{[5-chloro-2-fluoro-4-(5-{6-[(1-methylethyl)amino]pyridin-3-yl}-1,3,4-thiadiazol-2-yl)phenyl]oxy}propan-1-ol] | 250 to 2800 | 10 to 50 | 250 to 2800 | > 10 |  | 
3 | CCOc1ccc(-c2nnc(-c3cc(F)c(OC[C@H](N)CO)cc3Cl)s2)cc1C#N [Entry 76, 5-[5-(4-{[(2R)-2-amino-3-hydroxyporpyl]oxy}-2-chloro-5-fluorophenyl)-1,3,4-thiadiazol-2-yl]-2-(ethyloxy)benzonitrile] | ≤ 10 | 10 to 50 | 50 to 250 | > 10 |  | 
4 | COCCOc1ccc(-c2nnc(-c3cc(F)c(OC[C@H](N)CO)cc3Cl)s2)cc1C#N [Entry 78, 5-[5-(4-{[(2R)-2-amino-3-hydroxyporpyl]oxy}-2-chloro-5-fluorophenyl)-1,3,4-thiadiazol-2-yl]-2-{[2-(methyloxy)ethyl]oxy}benzonitrile] | 50 to 250 | 10 to 50 | 250 to 2800 | > 10 |  | 
5 | CC(C)Oc1ccc(-c2nnc(-c3cc(F)c(OC[C@H](N)CO)cc3Cl)s2)cc1C(N)=O [Entry 80, 5-[5-(4-{[(2R)-2-amino-3-hydroxypropyl]oxy}-2-chloro-5-fluorophenyl)-1,3,4-thiadiazol-2-yl]-2-[(1-methylethyl)oxy]benzamide] | 250 to 2800 |  | 250 to 2800 | > 10 |  | 250 to 2800
6 | CC(C)Nc1ncc(-c2nnc(-c3cc(F)c(OC[C@H](N)CO)cc3Cl)s2)cc1Cl [Entry 81, (2R)-2-amino-3-{[5-chloro-4-(5-{5-chloro-6-[(1-methylethyl)amino]pyridin-3-yl}-1,3,4-thiadiazol-2-yl)-2-fluorophenyl]oxy}propan-1-ol] | 10 to 50 | 10 to 50 | 250 to 2800 | > 10 |  | 
7 | CC(C)Oc1ccc(-c2nnc(-c3cc(F)c(OC[C@H](N)[C@H](C)O)cc3Cl)s2)cc1C#N [Entry 83, 5-[5-(4-{[(2S,3S)-2-amino-3-hydroxybutyl]oxy}-2-chloro-5-fluorophenyl)-1,3,4-thiadiazol-2-yl]-2-[(1-methylethyl)oxy]benzonitrile] | ≤ 10 | ≤ 10 | 10 to 50 | > 10 |  | 
8 | CC(C)Nc1ccc(-c2nnc(-c3cc(F)c(OC[C@H](N)[C@@H](C)OP(=O)(O)O)cc3Cl)s2)cn1 [Entry 85, (1R,2S)-2-amino-3-{[5-chloro-2-fluoro-4-(5-{6-[(1-methylethyl)amino]pyridin-3-yl}-1,3,4-thiadiazol-2-yl)phenyl]oxy}-1-methylpropyl dihydrogen phosphate] | ≤ 10 | ≤ 10 | 10 to 50 | > 10 |  | 
9 | CC(C)Oc1ccc(-c2nnc(-c3cc(F)c(OC[C@@H](N)[C@@H](C)O)cc3Cl)s2)cc1C#N [Entry 86, 5-[5-(4-{[(2R,3R)-2-amino-3-hydroxybutyl]oxy}-2-chloro-5-fluorophenyl)-1,3,4-thiadiazol-2-yl]-2-[(1-methylethyl)oxy]benzonitrile] | ≤ 10 | ≤ 10 | 10 to 50 |  | > 0.25 | 
10 | CC(C)Nc1ncc(-c2nnc(-c3cc(F)c(OC[C@H](N)CO)cc3Cl)s2)cn1 [Entry 89, (2R)-2-amino-3-{[5-chloro-2-fluoro-4-(5-{2-[(1-methylethyl)amino]pyrimidin-5-yl}-1,3,4-thiadiazol-2-yl)phenyl]oxy}propan-1-ol] | 50 to 250 | 10 to 50 | 250 to 2800 | > 10 |  | 
11 | CC(C)Nc1ncc(-c2nnc(-c3cc(F)c(OC[C@@H](N)CO)cc3Cl)s2)cn1 [Entry 90, (2S)-2-amino-3-{[5-chloro-2-fluoro-4-(5-{2-[(1-methylethyl)amino]pyrimidin-5-yl}-1,3,4-thiadiazol-2-yl)phenyl]oxy}propan-1-ol] | 50 to 250 |  | 250 to 2800 | ≤ 0.25 |  | ≤ 10
12 | Cc1cc(-c2nnc(-c3cc(F)c(OC[C@H](N)[C@@H](C)OP(=O)(O)O)cc3Cl)s2)cc(NC(C)C)n1 [Entry 94, (1R,2S)-2-amino-3-{[5-chloro-2-fluoro-4-(5-{2-methyl-6-[(1-methylethyl)amino]pyridin-4-yl}-1,3,4-thiadiazol-2-yl)phenyl]oxy}-1-methylpropyl dihydrogen phosphate] | ≤ 10 |  | 10 to 50 | ≤ 0.25 |  | ≤ 10
13 | Cc1cc(-c2nnc(-c3cc(F)c(OC[C@@H](N)[C@H](C)O)cc3Cl)s2)cnc1NC(C)C [Entry 96, (2S,3R)-3-amino-4-{[5-chloro-2-fluoro-4-(5-{5-methyl-6-[(1-methylethyl)amino]pyridin-3-yl}-1,3,4-thiadiazol-2-yl)phenyl]oxy}butan-2-ol] | 250 to 2800 | ≤ 10 | 2800 to 10000 | > 10 |  | 

Results, then the molecule that gave them:

Row | EC50 [1] [nM] | EC50 (S1P1; read-out: Assay 2b EC50) [nM] | EC50 [2] [nM] | EC50 (S1P3; read-out: Assay 5 EC50) [µM] | EC50 (S1P3; [3]) [µM] | EC50 (S1P1; [4]) [nM] | Structure (SMILES)
14 | 50 to 250 | ≤ 10 | 250 to 2800 | > 10 |  |  | CC(C)Nc1ccc(-c2nnc(-c3cc(F)c(OC[C@@H](N)[C@@H](C)O)cc3Cl)s2)cn1 [Entry 68, (2R,3R)-3-amino-4-{[5-chloro-2-fluoro-4-(5-{6-[(1-methylethyl)amino]pyridin-3-yl}-1,3,4-thiadiazol-2-yl)phenyl]oxy}butan-2-ol]
15 | ≤ 10 | ≤ 10 | 10 to 50 |  | > 0.25 |  | CC(C)Oc1ccc(-c2nnc(-c3cc(F)c(OC[C@H](N)[C@H](C)OP(=O)(O)O)cc3Cl)s2)cc1Cl [Entry 69, (1S,2S)-2-amino-3-{[5-chloro-4-(5-{3-chloro-4-[(1-methylethyl)oxy]phenyl}-1,3,4-thiadiazol-2-yl)-2-fluorophenyl]oxy}-1-methylpropyl dihydrogen phosphate]
16 | ≤ 10 |  | 10 to 50 | ≤ 0.25 |  | ≤ 10 | CC(C)Oc1ccc(-c2nnc(-c3cc(F)c(OC[C@@H](N)[C@H](C)O)cc3Cl)s2)cc1Cl [Entry 71, (2S,3R)-3-amino-4-{[5-chloro-4-(5-{3-chloro-4-[(1-methylethyl)oxy]phenyl}-1,3,4-thiadiazol-2-yl)-2-fluorophenyl]oxy}butan-2-ol]
17 | ≤ 10 | ≤ 10 | 10 to 50 | > 0.25 |  |  | CC(C)Oc1ccc(-c2nnc(-c3cc(F)c(OC[C@@H](N)[C@@H](C)O)cc3Cl)s2)cc1Cl [Entry 74, (2R,3R)-3-amino-4-{[5-chloro-4-(5-{3-chloro-4-[(1-methylethyl)oxy]phenyl}-1,3,4-thiadiazol-2-yl)-2-fluorophenyl]oxy}butan-2-ol]
18 | ≤ 10 | ≤ 10 | ≤ 10 | ≤ 0.25 |  |  | CC(C)Oc1ccc(-c2nnc(-c3cc(F)c(OC[C@H](N)COP(=O)(O)O)cc3Cl)s2)cc1C#N [Entry 79, (2S)-2-amino-3-{[5-chloro-4-(5-{3-cyano-4-[(1-methylethyl)oxy]phenyl}-1,3,4-thiadiazol-2-yl)-2-fluorophenyl]oxy}propyl dihydrogen phosphate]
19 | ≤ 10 | ≤ 10 | 10 to 50 | > 10 |  |  | CC(C)Oc1ccc(-c2nnc(-c3cc(F)c(OC[C@H](N)[C@@H](C)O)cc3Cl)s2)cc1C#N [Entry 82, 5-[5-(4-{[(2S,3R)-2-amino-3-hydroxybutyl]oxy}-2-chloro-5-fluorophenyl)-1,3,4-thiadiazol-2-yl]-2-[(1-methylethyl)oxy]benzonitrile]
20 | ≤ 10 |  | 10 to 50 | > 0.25 |  | ≤ 10 | CC(C)Nc1ccc(-c2nnc(-c3cc(F)c(OC[C@@H](N)[C@H](C)OP(=O)(O)O)cc3Cl)s2)cn1 [Entry 93, (1S,2R)-2-amino-3-{[5-chloro-2-fluoro-4-(5-{6-[(1-methylethyl)amino]pyridin-3-yl}-1,3,4-thiadiazol-2-yl)phenyl]oxy}-1-methylpropyl dihydrogen phosphate]
21 | ≤ 10 | ≤ 10 | 50 to 250 | > 0.25 |  |  | Cc1cc(-c2nnc(-c3cc(F)c(OC[C@H](N)[C@H](C)OP(=O)(O)O)cc3Cl)s2)cc(NC(C)C)n1 [Entry 95, (1S,2S)-2-amino-3-{[5-chloro-2-fluoro-4-(5-{2-methyl-6-[(1-methylethyl)amino]pyridin-4-yl}-1,3,4-thiadiazol-2-yl)phenyl]oxy}-1-methylpropyl dihydrogen phosphate]
